Common to all, as to assay: growth of human tumour cells (NCI), 48 h
Assay [1] relates to NCI-H23 lung.
The subject of assay [2] is UO-31 renal.
The test system of assay [3] is NCI-H522 lung.
Assay [4] has as its system K-562 leukemia.
Assay [5] deals with UACC-257 melanoma.
The subject of assay [6] is NCI-H226 lung.
Assay [7] relates to CAKI-1 renal.
Assay [8] relates to OVCAR-3 ovarian.
The subject of assay [9] is TK-10 renal.
In assay [10] the test system is LOX IMVI melanoma.
Assay [11] relates to SN12C renal.
Assay [12] relates to RXF 393 renal.
Assay [13] deals with SK-MEL-28 melanoma.

Structures are written as SMILES.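 Where inhibition never reached the appropriate level, the endpoint shown equals the highest concentration tested. Otherwise, values were interpolated linearly from a five-concentration, 48-hour dose response in 96-well plates. TGI: concentration producing complete growth inhibition.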

As for `COC1CC(OC2C(C)OC(OC3C(C)OC(OC4C(C)OC(O[C@H]5CC[C@@]6(C)C(=CC[C@]7(O)[C@@H]6C[C@@H](OC(C)=O)[C@@]6(C)[C@]7(O)CC[C@@]6(O)C(C)=O)C5)CC4OC)CC3OC)CC2OC)OC(C)C1O` (stereo not given in full), the TGI in [1], in [2], in assay [3], in assay [4], in assay [5] and in [6] was over 25 µM each time. Further, the TGI in [7], in assay [8], in assay [9], in assay [10] and in [11] was over 25 µM in each case.
Consider `O=C1O[C@H]2[C@H](OC(=O)c3cc(O)c(O)c(O)c3)[C@@H](OC(=O)c3cc(O)c(O)c4c3[C@@H]3C1=CC(=O)C(O)(O)C3(O)O4)[C@H](OC(=O)c1cc(O)c(O)c(O)c1)O[C@@H]2COC(=O)c1cc(O)c(O)c(O)c1` (stereo not given in full), for which the TGI in assay [1], in assay [2], in [3], in assay [4], in assay [5] and in assay [6] was over 100 µM throughout. In addition, the TGI in assay [7], in assay [12], in assay [8], in [10], in assay [13] and in [11] was over 100 µM each time.
As to `CCOC(=O)c1nc2ccc(C(F)(F)F)cc2nc1NCc1ccc(OC)c(OC)c1`, the TGI in [1], in assay [2], in assay [3], in [4], in [5] and in assay [6] was over 100 µM throughout. Besides, the TGI in assay [7], in assay [12], in assay [8], in assay [9] and in assay [10] was over 100 µM in each case.
Consider `CCCCCCCCCOCC(COP(=O)([O-])OCC[N+](C)(C)C)OC` (stereo not given), for which the TGI in assay [1], in assay [2], in [3], in assay [4], in assay [5] and in [6] was over 100 µM each time. The TGI in assay [7], in [12], in [8], in assay [10], in assay [13] and in assay [11] was over 100 µM each time.
Take `COc1c(C(=O)NCCN(CCNC(=O)c2cccc(-c3cccc(C(=O)N(C)C)c3OC)c2OC)CCNC(=O)c2cccc(-c3cccc(C(=O)N(C)C)c3OC)c2OC)cccc1-c1cccc(C(=O)N(C)C)c1OC`: the TGI in assay [1] was over 100 µM; in [2], over 100 µM; in assay [3], 43.5 µM; in [4], 65 µM; in assay [5], 75.5 µM; in assay [6] it was 36.6 µM. The TGI in [7] was over 100 µM; in assay [12], 63 µM; in assay [8], 32.5 µM; in [10], 33.7 µM; in assay [13], 41.5 µM; in assay [11] it was over 100 µM.
Regarding `Cc1ccc2nc(C(C)C)c(=O)[nH]c2c1`, the TGI in assay [1], in assay [2], in [3], in [4], in assay [5] and in assay [6] was over 100 µM in each case. For the same molecule, the TGI is over 100 µM in assay [7]; over 100 µM in assay [12]; 32.8 µM in assay [8]; over 100 µM in assay [9]; over 100 µM in assay [13]; over 100 µM in assay [11].
Take `CCOC(=O)CC(NC(=O)c1[nH]cnc1/N=N/N(C)C)C(=O)OCC` (stereo not given): the TGI in [1], in assay [2], in assay [3], in assay [4], in assay [5] and in [6] was over 100 µM in each case. Besides, the TGI in assay [7], in assay [8], in assay [9], in [10], in [13] and in [11] was over 100 µM throughout.
For the molecule `CC(C)C1NC(=O)CC(c2ccccc2)N(N=O)C1c1ccccc1` (stereo not given), the TGI in assay [1], in assay [2], in assay [3], in [4], in assay [5] and in assay [6] was over 100 µM in each case. The TGI in assay [7], in assay [12], in assay [8], in [10], in assay [13] and in [11] was over 100 µM in each case.
Turning to `COc1cc(C2(c3ncc[nH]3)SSSCC2O)ccc1O` (stereo not given), the TGI was over 100 µM in assay [1]; over 100 µM in [2]; 90.6 µM in [3]; over 56.5 µM in assay [4]; 28.5 µM in [5]; over 100 µM in assay [6]. Moreover, the TGI is over 100 µM in assay [7]; 89.4 µM in assay [12]; over 71.7 µM in assay [8]; over 54.5 µM in [10]; over 100 µM in assay [13]; over 100 µM in assay [11].
With `O=C(CSCC(=O)N/N=C\c1cccc([N+](=O)[O-])c1)N/N=C\c1cccc([N+](=O)[O-])c1`, the TGI in assay [1] was 31.1 µM; in assay [2] it was over 100 µM; in assay [3], over 100 µM; in assay [5], over 100 µM; in assay [6], over 100 µM; in [7], 64.4 µM. Also, the TGI in [12] is over 100 µM; in assay [8], 84.1 µM; in assay [9], 36.4 µM; in [10], over 100 µM; in assay [13], over 100 µM; in assay [11], over 100 µM.
With `CSCSCC(CO)NC(=O)/C(C)=C\c1c(C)[nH]c(=O)[nH]c1=O` (stereo not given), the TGI is over 250 µM in assay [1]; over 250 µM in assay [2]; over 250 µM in assay [3]; over 250 µM in assay [4]; over 158 µM in assay [5]; over 250 µM in [6]. The TGI in assay [7], in [12], in [8], in assay [10], in [13] and in assay [11] was over 250 µM each time.

These data come from PubChem BioAssay (NCI).
